The values that follow come from article PMC6327263, “Evaluation of Novel 3-Hydroxyflavone Analogues as HDAC Inhibitors against Colorectal Cancer” (Advances in Pharmacological Sciences, 2018).

Test [1] deals with HDAC enzyme in HCT116 cells. The test can be described thus: Whole cell HDAC inhibition assay. It is filed as cell-based. Particulars: Homo sapiens, HCT-116, HCT116, 18 h treatment, mean ± SEM of three experiments. As to the method:
Confluent HCT116 cells were harvested and seeded in 96 well sterile black well plates at a density of 2000 cells per well and incubated overnight. Furthermore, the cells were treated with different concentrations of test compounds for a period of 18 h followed by the addition of […] BOC-Ac-Lys-AMC substrate and incubated for 1 h. […] The reaction was then allowed to proceed for 15 min at 37°C. Finally, the fluorescence intensity was measured at 360 nm excitation and 460 nm emission using a fluorescence microplate reader (FLx800, BioTek Instruments Inc., Winooski, VT, USA).

Test [2] relates to HCT116 cells. Description: MTT cytotoxicity assay, HCT116. The test is classed as cell-based, human. The conditions noted are these: Homo sapiens, HCT-116, 48 h, mean ± SEM of three experiments. As to the method: (§1) Human colorectal carcinoma cell line (HCT116) and African green monkey kidney epithelial cells (VERO) were obtained from National Centre for Cell Science, Pune, MH, India. For their maintenance, the cells were grown in Dulbecco's Modified Eagle's Medium (DMEM) which was supplemented with 10% fetal bovine serum (FBS) and 1 × penicillin/streptomycin at 37°C in CO2 incubator (NU-5501E/G, NuAire Inc., Plymouth, MN, USA) in a humidified atmosphere of 5% CO2 and 95% air.
(§2) Cytotoxicity for the synthesized analogues was determined using MTT assay. In brief, HCT116 and VERO cells were harvested from the tissue culture flask and seeded in sterile 96 well plates at a density of 5000 cells per well. After overnight adherence, different concentrations of test compounds were added and incubated for 48 h. Next, 50 µl of the MTT reagent (HiMedia Laboratories, Mumbai, India) (2 mg/ml in the sterile phosphate buffer saline (PBS)) was added into each well and incubated for 3 h. The formazan crystals formed were solubilized using 100% dimethyl sulfoxide (DMSO), and the optical density was measured at 540 nm using the microplate reader (ELx800, BioTek Instruments Inc., Winooski, VT, USA).
In general terms: Tetrazolium assays rely on reduction of a dye to a coloured formazan, in cell work by metabolically active cells.

Test [3] relates to VERO cells. The test can be described thus: MTT cytotoxicity assay, Vero. It is filed as cell-based, African green monkey. The conditions noted are these: Chlorocebus sabaeus, 48 h, mean ± SEM of three experiments. As to the method:
as §1, §2

The subject of test [4] is caspase 3/7 in HCT116 cells. Description: Caspase 3/7 activation assay. It is filed as cell-based, human. Particulars: SAHA 5 µM, quercetin 100 µM, QMJ-2 100 µM, QMJ-5 50 µM, normal control 24.60%. As for the experimental part:
The downstream signaling pathway of apoptosis was determined using the caspase 3/7 activation assay. In brief, as per the caspase 3/7 activation kit protocol (#MCH100108), 1 × 10^6 cells were seeded in the cell culture dish and after overnight adherence, were incubated with the test compounds. The cells were detached by trypsinization, centrifuged, and washed with PBS. Cell suspension (50 µl) was mixed with the caspase 3/7 antibody reagent (5 µl) and incubated at 37°C temperature for 30 min. 7-AAD (7-amino-actinomycin D) working solution (150 µl) was added, and stained cells were then analyzed in Muse Cell Analyzer (#0500-3115 Merck Millipore).

For test [5], the system named is p21^Waf1/Cip1. The test can be described thus: Western blotting, p21Waf1/Cip1 expression. It is filed as cell-based, human. Particulars: HCT116 cells, 24 h, compared to normal control. As for the experimental part:
(§3) After various treatments for 24 h, cells were lysed, and protein quantification of the lysates was estimated using the BCA™ kit (Thermo Fisher Scientific Inc., Waltham, MA, USA). Proteins samples (30 µg) were resolved on a 10% SDS-PAGE and transferred onto a PVDF membrane and blocked with 5% nonfat milk in TBST (tris-buffered saline with Tween-20) buffer for 1 h followed by washing in TBST buffer. The membrane was then probed with primary antibodies (GAPDH, HDAC8, p21^Waf1/Cip1, and acetyl-histone H3[Ac-Lys^9]) and incubated overnight at 4°C. The membrane was washed with TBST buffer and incubated with horseradish peroxidase-conjugated secondary antibody for 1 h at room temperature. Signal was captured using SuperSignal™ West Pico Plus chemiluminescent substrate (Thermo Fischer Scientific Inc., Waltham, MA, USA) on gel documentation system (G : BOX Chemi XRQ, Syngene).

In test [6] the test system is HCT116 cells. Description: Annexin V staining. The test is classed as cell-based, human. The conditions noted are these: SAHA 5 µM, quercetin 100 µM, QMJ-2 100 µM, QMJ-5 50 µM, normal control 21.30%. As for the experimental part:
Mechanism of cell death induced by synthesized analogues was determined using annexin V staining. In brief, as per annexin V flow cytometry kit protocol (#MCH100105), 1 × 10^6 cells were seeded in a cell culture dish and after overnight adherence, were incubated with test compounds. Cells were then detached by trypsinization, centrifuged, and washed with PBS. Cell suspension (100 µl) was mixed with Muse annexin V reagent (100 µl) and incubated for 20 min at room temperature. The stained cells were quantitatively analyzed for live, early, and late apoptosis using Muse cell analyzer (#0500-3115 Merck Millipore).

Test [7] relates to HCT116 cells. Description: Cell cycle analysis. The test is classed as cell-based, human. The conditions noted are these: HCT116, 48 h; SAHA 5 µM, quercetin 100 µM, QMJ-2 100 µM, QMJ-5 50 µM; normal control 29.2%. As for the experimental part: Cell cycle analysis was performed to estimate the effect of synthesized analogues on the different phases of the cell cycle. In brief, 1 × 10^6 cells were seeded in the cell culture dish and allowed to attach overnight followed by incubation with test compounds. After 48 h, the cells were detached by trypsinization, centrifuged, and washed with PBS. The cell pellets were fixed in 70% v/v ice cold ethanol and stored at −20°C for 24 h. After fixing, the pellets were dislodged in PBS and stained with propidium iodide solution and analyzed using Accuri C6 flow cytometer (BD Biosciences, San Jose, CA, USA).

The subject of test [8] is HDAC8. The test can be described thus: Western blotting, HDAC8 expression. It is filed as cell-based, human. The conditions noted are these: HCT116 cells, 24 h, compared to normal control. As for the experimental part:
as §3
Background: A western blot detects proteins with antibodies after separation by electrophoresis.

For test [9], the system named is acetyl histone H3K9. The test can be described thus: Western blotting, acetyl histone H3K9 expression. The test is classed as cell-based, human. Particulars: HCT116 cells, 24 h, compared to normal control. As for the experimental part: as §3, with “Syngene). The protein band densities were estimated using the software ImageJ (version 1.46r, NIH, Bethesda, MD, USA).” for “Syngene).”

The test system of test [10] is DMH-induced colon cancer. The test is classed as in vivo, Wistar rats. The conditions noted are these: 5-FU 10 mg/kg i.p. As for the experimental part:
The two test compounds (QMJ-2 and QMJ-5) and quercetin were suspended in 0.25% w/v sodium carboxymethyl cellulose (CMC) and were administered orally (p.o.). 5-Fluorouracil (5-FU) which was used as a standard was procured in the form of injection and was administered intraperitonially (i.p.).
Colon cancer in experimental animals was induced using the highly specific carcinogen DMH, with few modifications from the previously described procedure. DMH was administered at a dose of 30 mg/kg i.p. once a week for 20 weeks. The incidence of aberrant crypt foci (ACF) and adenocarcinoma were confirmed by sacrificing few animals after 20 weeks of induction with DMH. Furthermore, the animals were randomized into five experimental groups, and various treatments were administered for a period of 21 days followed by the assessment of different parameters in the experimental animals.
(1) Experimental Groups • Group 1: animals received 0.25% CMC in water p.o. • Group 2: animals received 0.25% CMC in water p.o. (DMH control) • Group 3: animals received 5-FU at 10 mg/kg i.p. • Group 4: animals received quercetin at 100 mg/kg p.o. • Group 5: animals received QMJ-2 at 100 mg/kg p.o. • Group 6: animals received QMJ-5 at 100 mg/kg p.o.
(2) ACF Formation and Adenocarcinoma Incidence. The entire colon was excised from the experimental animals and was used to study the incidence of adenocarcinoma. The count and size were noted from each animal. For ACF formation, the distal part of the colon was excised, and the tissue was then cut open and fixed with 10% buffered formalin for 12 h. Following this, the tissue was stained with 0.1% methylene blue in PBS for 5 min. The tissues were then observed under microscope for ACF formation and were calculated as the number of counts/5 cm^2 in colon tissue.
(3) Colon Weight/Length Ratio and Organ Index. Length of the excised colon was measured in centimeters, and weight was measured in g. Colon weight/length ratio was then calculated. For the determination of organ index, major organs including spleen, liver, and kidney of the experimental animals were weighed in g and the respective index was calculated. […]

“And” between values parts separate entries of the source, which are not always exact repeats. Equal values may be shown once. Marks after values point to notes of the source that are not given here. Bounds are passed on as bounds.

The IC50 is the midpoint of a concentration-inhibition curve. A lower IC50 goes with greater potency in that assay.

Regarding `CN(C)c1ccc(-c2oc3ccccc3c(=O)c2O)cc1` [QMJ-1, 2-[4(Dimethylamino)phenyl]-3-hydroxy-4H-1-benzopyran-4-one], the IC50 came out at 1023 ± 5.2 µM in test [1], 102 ± 1.8 µM in [2] and 186 ± 4.9 µM in [3].

Take `Cc1ccc2oc(-c3ccc(N(C)C)cc3)c(O)c(=O)c2c1` [QMJ-3, 2-[4-(Dimethylamino)phenyl]-3-hydroxy-6-methyl-4H-1-benzopyran-4-one]: the figures for the concentration for half-maximal inhibition (IC50) in [1], in test [2] and in [3] were 1124 ± 6.2 µM, 70.3 ± 4.1 µM and 80.1 ± 3.7 µM, respectively.

For the compound `COc1ccc2c(=O)c(O)c(-c3ccc(C)cc3)oc2c1` [QMJ-6, 3-Hydroxy-7-methoxy-2-(4-methylphenyl)-4H-1-benzopyran-4-one], the values for the half-inhibitory concentration (IC50) in [1], in [2] and in test [3] were 984.2 ± 2.5 µM, 94 ± 2.1 µM and 153 ± 2.3 µM, respectively.

As to `Cc1ccc(-c2oc3ccc(C)cc3c(=O)c2O)cc1` [QMJ-4, 3-Hydroxy-6-methyl-2-(4-methylphenyl)-4H-1-benzopyran-4-one], the IC50 in [1] was 1011 ± 3.4 µM; in [2] it was above 400 µM; in test [3], above 400 µM.

In the case of `O=C(CCCCCCC(=O)Nc1ccccc1)NO` [SAHA, reference compound], the “percentage of apoptotic cells (Apoptotic/Dead, caspase 3/7)” value in test [4] amounted to 56.30%. Moreover, the “expression of p21^Waf1/Cip1” value in test [5] is given as “increased”. Also, the “percentage of cells undergoing late apoptosis (Late Apop./Dead, annexin V)” value in [6] is reported as 27.65%. Further, the “percentage of cells in G2/M phase” value in [7] turned out to be 37.5%. For the same compound, the HDAC8 expression entry in [8] is given as “significant reduction”. In test [9], the “expression of acetylated histone H3K9” value is recorded as “significant increase”.

As to `O=c1[nH]cc(F)c(=O)[nH]1` [5-FU, 5-Fluorouracil, reference compound], the “ACF/5 cm^2” value in [10] (21 days treatment, quercetin, QMJ-2, QMJ-5 100 mg/kg p.o., DMH control 25 ± 2.1, mean ± SEM of six animals) was 10 ± 1.3 /5 cm^2 and 10 ± 1.3^a /5 cm^2. In [10] (compared with DMH control, others 100 mg/kg p.o., 21 days), the colon weight/length ratio result was “significantly (p < 0.05) reduced”. In test [10] (count in colon, 21 days treatment, quercetin, QMJ-2, QMJ-5 100 mg/kg p.o., DMH control 17 ± 1.7, mean ± SEM of six animals), the Adenocarcinoma was 8 ± 1.1^a.
